Measured values as given in patent US20110021565A1, “PIPERIDINE DERIVATIVES AS NK3 ANTAGONISTS” (priority 2007, published 2011).

Each compound was assayed against T1, recombinant human NK3 receptor (Homo sapiens, UniProt P29371) (assay: [3H]SR142801 competition binding assay). Conditions: [3H]SR142801, membranes of HEK293 cells transiently expressing recombinant human NK3 receptor; read-out: hNK3 Ki.
T1 construct: expressed in transfected cells; host or cells: HEK293 cells, transient expression; membrane preparation
T1 sequence (P29371 1-465): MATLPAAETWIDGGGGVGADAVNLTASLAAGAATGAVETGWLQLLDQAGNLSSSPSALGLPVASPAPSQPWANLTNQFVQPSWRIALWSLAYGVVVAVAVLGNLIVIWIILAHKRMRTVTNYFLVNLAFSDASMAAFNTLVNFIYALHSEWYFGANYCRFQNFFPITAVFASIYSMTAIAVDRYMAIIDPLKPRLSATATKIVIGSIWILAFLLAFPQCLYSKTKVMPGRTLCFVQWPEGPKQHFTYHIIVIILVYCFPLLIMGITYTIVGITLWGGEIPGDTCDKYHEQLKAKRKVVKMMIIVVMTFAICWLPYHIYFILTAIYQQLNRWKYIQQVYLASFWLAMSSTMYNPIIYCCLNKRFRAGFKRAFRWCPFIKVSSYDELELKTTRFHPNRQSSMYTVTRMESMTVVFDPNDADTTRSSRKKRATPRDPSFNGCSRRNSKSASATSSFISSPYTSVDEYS
Description: [^3H]SR142801 Competition Binding Assay
hNK3 receptor binding experiment were performed using [^3H]SR142801 (Catalog No. TRK1035, specific activity: 74.0 Ci/mmol, Amersham, GE Healthcare UK limited, Buckinghamshire, UK) and membrane isolated from HEK293 cells transiently expressing recombinant human NK3 receptor. After thawing, the membrane homogenates were centrifuged at 48,000×g for 10 min at 4° C., the pellets were resuspended in the 50 mM Tris-HCl, 4 mM MnCl2, 1 μM phosphoramidon, 0.1% BSA binding buffer at pH 7.4 to a final assay concentration of 5 μg protein/well. For inhibition experiments, membranes were incubated with [^3H]SR142801 at a concentration equal to KD value of radioligand and 10 concentrations of the inhibitory compound (0.0003-10 μM) (in a total reaction volume of 500 μl) for 75 min at room temperature (RT). At the end of the incubation, membranes were filtered onto unitfilter (96-well white microplate with bonded GF/C filter preincubated 1 h in 0.3% PEI+0.3% BSA, Packard BioScience, Meriden, Conn.) with a Filtermate 196 harvester (Packard BioScience) and washed 4 times with ice-cold 50 mM Tris-HCl, pH 7.4 buffer. Nonspecific binding was measured in the presence of 10 μM SB222200 for both radioligands. The radioactivity on the filter was counted (5 min) on a Packard Top-count microplate scintillation counter with quenching correction after addition of 45 μl of microscint 40 (Canberra Packard S. A., Zurich, Switzerland) and shaking for 1 h. Inhibition curves were fitted according to the Hill equation: y=100/(1+(x/IC50)^nH), where nH=slope factor using Excel-fit 4 software ([…]). IC50 values were derived from the inhibition curve and the affinity constant (IQ values were calculated using the Cheng-Prussoff equation Ki=IC50/(1+[L]/KD) where [L] is the concentration of radioligand and KD is its dissociation constant at the receptor, derived from the saturation isotherm. All experiments were performed in duplicate and the mean±standard error (SEM) of the individual Ki values was calculated.

Compound | Ki [nM]
CCN(C(C)=O)C1CCN(CCC(C)(C(=O)N[C@@H](CO)c2ccc(F)cc2)c2ccc(Cl)c(Cl)c2)CC1 (single isomer, unassigned; epimer 2) [Example 167] | 34.9
COCCN(C(C)=O)C1CCN(CCC(C)(C(=O)N[C@@H](CO)c2ccc(Cl)cc2)c2ccc(Cl)c(Cl)c2)CC1 (stereo in doubt) [Example 147, 4-{4-[Acetyl-(2-methoxy-ethyl)-amino]-piperidin-1-yl}-N-[1-(4-chloro-phenyl)-2-hydroxy-ethyl]-2-(3,4-dichloro-phenyl)-2-methyl-butyramide] | 382
COc1ccc(CN(C)C(=O)C(C)(CCN2CCC(NS(C)(=O)=O)CC2)c2ccc(Cl)c(Cl)c2)cc1F (stereo not drawn) [Example 1, 2-(3,4-Dichloro-phenyl)-N-(3-fluoro-4-methoxy-benzyl)-4-(4-methanesulfonylamino-piperidin-1-yl)-2,N-dimethyl-butyramide] | 187
COc1ccc(C(NC(=O)C(C)(CCN2CCC(NS(C)(=O)=O)CC2)c2ccc(Cl)c(Cl)c2)C2CC2)cc1 (stereo not drawn) [Example 2, N-[Cyclopropyl-(4-methoxy-phenyl)-methyl]-2-(3,4-dichloro-phenyl)-4-(4-methanesulfonyl-amino-piperidin-1-yl)-2-methyl-butyramide] | 703
CN(Cc1ccc(F)c(C(F)(F)F)c1)C(=O)C(C)(CCN1CCC(NS(C)(=O)=O)CC1)c1ccc(Cl)c(Cl)c1 (stereo not drawn) [Example 3, 2-(3,4-Dichloro-phenyl)-N-(4-fluoro-3-trifluoromethyl-benzyl)-4-(4-methanesulfonyl-amino-piperidin-1-yl)-2,N-dimethyl-butyramide] | 23.2
CC(CCN1CCC(NS(C)(=O)=O)CC1)(C(=O)NCc1cc(C(F)(F)F)cc(C(F)(F)F)c1)c1ccc(Cl)c(Cl)c1 (stereo not drawn) [Example 4, N-(3,5-Bis-trifluoromethyl-benzyl)-2-(3,4-dichloro-phenyl)-4-(4-methanesulfonyl-amino-piperidin-1-yl)-2-methyl-butyramide] | 140
COc1cc(CN(C)C(=O)C(C)(CCN2CCC(NS(C)(=O)=O)CC2)c2ccc(Cl)c(Cl)c2)ccc1OC(F)F (stereo not drawn) [Example 5, 2-(3,4-Dichloro-phenyl)-N-(4-difluoromethoxy-3-methoxy-benzyl)-4-(4-methanesulfonyl-amino-piperidin-1-yl)-2,N-dimethyl-butyramide] | 272
Cc1ccc(CN(C)C(=O)C(C)(CCN2CCC(NS(C)(=O)=O)CC2)c2ccc(Cl)c(Cl)c2)cc1 (stereo not drawn) [Example 6, 2-(3,4-Dichloro-phenyl)-4-(4-methanesulfonyl-amino-piperidin-1-yl)-2,N-dimethyl-N-(4-methyl-benzyl)-butyramide] | 77.4
CN(C)c1ccc(CNC(=O)C(C)(CCN2CCC(NS(C)(=O)=O)CC2)c2ccc(Cl)c(Cl)c2)cc1 (stereo not drawn) [Example 7, 2-(3,4-Dichloro-phenyl)-N-(4-dimethylamino-benzyl)-4-(4-methanesulfonyl-amino-piperidin-1-yl)-2-methyl-butyramide] | 621
CN(Cc1ccc(Cl)c(C(F)(F)F)c1)C(=O)C(C)(CCN1CCC(NS(C)(=O)=O)CC1)c1ccc(Cl)c(Cl)c1 (stereo not drawn) [Example 8, N-(4-Chloro-3-trifluoromethyl-benzyl)-2-(3,4-dichloro-phenyl)-4-(4-methanesulfonyl-amino-piperidin-1-yl)-2,N-dimethyl-butyramide] | 22.6
CN(Cc1ccc(C(F)(F)F)c(F)c1)C(=O)C(C)(CCN1CCC(NS(C)(=O)=O)CC1)c1ccc(Cl)c(Cl)c1 (stereo not drawn) [Example 9, 2-(3,4-Dichloro-phenyl)-N-(3-fluoro-4-trifluoromethyl-benzyl)-4-(4-methanesulfonyl-amino-piperidin-1-yl)-2,N-dimethyl-butyramide] | 30
CN(Cc1ccc(Cl)c(Cl)c1)C(=O)C(C)(CCN1CCC(NS(C)(=O)=O)CC1)c1ccc(Cl)c(Cl)c1 (stereo not drawn) [Example 10, N-(3,4-Dichloro-benzyl)-2-(3,4-dichloro-phenyl)-4-(4-methanesulfonyl-amino-piperidin-1-yl)-2,N-dimethyl-butyramide] | 24
CC(CCN1CCC(NS(C)(=O)=O)CC1)(C(=O)NCc1ccc(Cl)c(Cl)c1)c1ccc(Cl)c(Cl)c1 (stereo not drawn) [Example 11, N-(3,4-Dichloro-benzyl)-2-(3,4-dichloro-phenyl)-4-(4-methanesulfonyl-amino-piperidin-1-yl)-2-methyl-butyramide] | 44.2
CC(CCN1CCC(NS(C)(=O)=O)CC1)(C(=O)NCc1cccc(OC(F)F)c1)c1ccc(Cl)c(Cl)c1 (stereo not drawn) [Example 12, 2-(3,4-Dichloro-phenyl)-N-(3-difluoromethoxy-benzyl)-4-(4-methanesulfonyl-amino-piperidin-1-yl)-2-methyl-butyramide] | 309
CC(CCN1CCC(NS(C)(=O)=O)CC1)(C(=O)NCc1cc(F)ccc1C(F)(F)F)c1ccc(Cl)c(Cl)c1 (stereo not drawn) [Example 13, 2-(3,4-Dichloro-phenyl)-N-(5-fluoro-2-trifluoromethyl-benzyl)-4-(4-methanesulfonyl-amino-piperidin-1-yl)-2-methyl-butyramide] | 580
CC(CCN1CCC(NS(C)(=O)=O)CC1)(C(=O)NCc1ccc(C(F)(F)F)cc1)c1ccc(Cl)c(Cl)c1 (stereo not drawn) [Example 14, 2-(3,4-Dichloro-phenyl)-4-(4-methanesulfonyl-amino-piperidin-1-yl)-2-methyl-N-(4-trifluoromethyl-benzyl)-butyramide] | 58
CC(CCN1CCC(NS(C)(=O)=O)CC1)(C(=O)NCc1cc(C(F)(F)F)ccc1F)c1ccc(Cl)c(Cl)c1 (stereo not drawn) [Example 15, 2-(3,4-Dichloro-phenyl)-N-(2-fluoro-5-trifluoromethyl-benzyl)-4-(4-methanesulfonyl-amino-piperidin-1-yl)-2-methyl-butyramide] | 166
CC(NC(=O)C(C)(CCN1CCC(NS(C)(=O)=O)CC1)c1ccc(Cl)c(Cl)c1)c1ccc(Cl)cc1 (stereo not drawn) [Example 16, N-[1-(4-Chloro-phenyl)-ethyl]-2-(3,4-dichloro-phenyl)-4-(4-methanesulfonyl-amino-piperidin-1-yl)-2-methyl-butyramide] | 173
COc1cccc(CN(C)C(=O)C(C)(CCN2CCC(NS(C)(=O)=O)CC2)c2ccc(Cl)c(Cl)c2)c1 (stereo not drawn) [Example 17, 2-(3,4-Dichloro-phenyl)-4-(4-methanesulfonyl-amino-piperidin-1-yl)-N-(3-methoxy-benzyl)-2,N-dimethyl-butyramide] | 213
CN(Cc1ccccc1Cl)C(=O)C(C)(CCN1CCC(NS(C)(=O)=O)CC1)c1ccc(Cl)c(Cl)c1 (stereo not drawn) [Example 18, N-(2-Chloro-benzyl)-2-(3,4-dichloro-phenyl)-4-(4-methanesulfonyl-amino-piperidin-1-yl)-2,N-dimethyl-butyramide] | 33.3
CC(NC(=O)C(C)(CCN1CCC(NS(C)(=O)=O)CC1)c1ccc(Cl)c(Cl)c1)c1ccc(Cl)c(Cl)c1 (stereo not drawn) [Example 19, 2-(3,4-Dichloro-phenyl)-N-[1-(3,4-dichloro-phenyl)-ethyl]-4-(4-methanesulfonyl-amino-piperidin-1-yl)-2-methyl-butyramide] | 59.9
CN(Cc1ccc(-c2ccncc2)cc1)C(=O)C(C)(CCN1CCC(NS(C)(=O)=O)CC1)c1ccc(Cl)c(Cl)c1 (stereo not drawn) [Example 20, 2-(3,4-Dichloro-phenyl)-4-(4-methanesulfonyl-amino-piperidin-1-yl)-2,N-dimethyl-N-(4-pyridin-4-yl-benzyl)-butyramide] | 203
CC(CCN1CCC(NS(C)(=O)=O)CC1)(C(=O)NCc1cccc(OC(F)(F)F)c1)c1ccc(Cl)c(Cl)c1 (stereo not drawn) [Example 21, 2-(3,4-Dichloro-phenyl)-4-(4-methanesulfonyl-amino-piperidin-1-yl)-2-methyl-N-(3-trifluoromethoxy-benzyl)-butyramide] | 147
CC(CCN1CCC(NS(C)(=O)=O)CC1)(C(=O)NCc1ccc(Cl)c(F)c1)c1ccc(Cl)c(Cl)c1 (stereo not drawn) [Example 22, N-(4-Chloro-3-fluoro-benzyl)-2-(3,4-dichloro-phenyl)-4-(4-methanesulfonyl-amino-piperidin-1-yl)-2-methyl-butyramide] | 70.8
